Tests used:
Format in all cases: cell-based
[1] = tested on: STAT3-mediated gene expression (SOCS3, PD-L1); test: RT-qPCR of STAT3, SOCS3 and PDL-1 mRNA levels in SU-DHL-1 cells; conditions: FIG. 15
Experimental: FIG. 5. Includes graphical images and tables showing the results of RT-qPCR in SU-DHL-1 cells at 24 hours (A) with mRNA levels (% control) over I-103 concentration (nM)(x-axis) for STAT3, SOCS3, and PDL-1 genes and CellTiterGlo (CTG) cell viability at 4 days (B) with growth inhibition (% control) over I-103 concentration (nM)(x-axis) for MOLM-16 and SU-DHL-1 cell lines. Also shown are the results of MSD degradation DC50 (nM) in MOLM-16 and SU-DHL-1 cell lines at 24 hours.

ALK+ALCL cell lines = test: growth inhibition in multiple ALK+ALCL cell lines; conditions: dose response curves, FIG. 16
SOCS3 = test: STAT3 RT-qPCR assay, SOCS3 mRNA; conditions: SU-DHL-1 cells
Experimental: (§1) SU-DHL-1 cells were treated with compounds for a designed time. 0.3-0.6 mL lysis buffer with 2-mercaptoethanol was added to the collected cell pellet or monolayer cells. The cells were vortexed until the cell was dispersed and the cells appear lysed. One volume of 70% ethanol was added to each volume of cell homogenate and vortex. 700 μL of the sample was transferred to the spin cartridge and centrifuged at 12000 g for 15s at RT. The flow-through was discarded and the process repeated until the entire samples had been processed. 700 ul wash buffer I was added to the spin cartridge and centrifuged at 12000 g for 15s at RT and the flow-through was discarded. 500 μL wash buffer II with ethanol was added to the spin cartridge and centrifuged at 12000 g for 15s at RT and the flow-through was discarded. The process was then repeated. The spin cartridge was centrifuged at 12000 g for 2 min to dry the membrane with bound RNA. 30-100 μL RNase-free water was added to the center of the spin cartridge and incubated for 1 min at RT. […] The concentration of the RNA was quantitated using Nano-Drop. cDNA was formed from the RNA by reverse transcription and qPCR of the cDNA with primer of the gene of interest and housekeeping gene was preformed using the volumes below: […]

PD-L1 = test: STAT3 RT-qPCR assay, PD-L1 mRNA; conditions: SU-DHL-1 cells
Experimental: as §1

STAT3 = STAT3 RT-qPCR assay, STAT3 mRNA; conditions: SU-DHL-1 cells, FIG. 5A, FIG. 15
Experimental: as §1

DEL cells = test: CellTiter-Glo cell viability, DEL
SU-DHL-1 cells = test: Caspase 3/7-Glo activity assay; conditions: SU-DHL-1, FIG. 17
Experimental: Determination of apoptosis was determined using a Caspase 3/7-Glo assay.
• 1—Prepare the Caspase-Glo® 3/7 Reagent (Promega cat #G8090) • Equilibrate the Caspase-Glo® 3/7 Buffer and lyophilized Caspase-Glo® 3/7 Substrate to room temperature before use. • Transfer the contents of the Caspase-Glo® 3/7 Buffer bottle into the amber bottle containing Caspase-Glo® 3/7 Substrate. • Mix by swirling or inverting the contents until the substrate is thoroughly dissolved to form the Caspase-Glo® 3/7 Reagent • Aliquot and store at −20 • 2—If thawing the reagent, allow it to equilibrate to room temperature. Mix well. • 3—Remove white-walled 384-well plate containing treated cells from the incubator and allow plates to equilibrate to room temperature. • 4—Add Caspase-Glo® 3/7 Reagent to each well of the plate at 1:1 ratio with media. Because of the sensitivity of this assay, be careful not to touch pipet tips to the wells containing samples to avoid cross-contamination. Cover the plate with a plate sealer or lid. • 5—Gently mix contents of wells using a plate shaker at 300-500 rpm for 30 seconds. Incubate at room temperature for 30-60 minutes. Note: Temperature fluctuations will affect the luminescence reading. • 6—Measure the luminescence of each sample in a plate-reading luminometer as directed by the luminometer manufacturer.

## Cn1c(=O)n(C2CCC(=O)NC2=O)c2ccc(C[C@H]3CC[C@@H](CC(=O)N4CC[C@H]5CC[C@@H](C(=O)N[C@@H](CCC(N)=O)C(=O)NC(c6ccccc6)c6ccccc6)N5C(=O)[C@@H](NC(=O)c5cc6cc(C(=O)P(=O)(O)O)ccc6[nH]5)C4)CC3)cc21 (stereo partly drawn) [Compound I-174, 2-[[(5S,8S,10aR)-8-[[(1S)-3-carbamoyl-1-(diphenylmethylcarbamoyl)propyl]carbamoyl]-6-oxo-3-[2-[(1s,4s)-4-[[1-(2,6-dioxopiperidin-3-yl)-3-methyl-2-oxo-1,3-benzodiazol-5-yl]methyl]cyclohexyl]acetyl]-octahydropyrrolo[1,2-a][1,5]diazocin-5-yl]carbamoyl]-1H-indole-5-carbonylphosphonic acid]
[1]
  STAT3-mediated gene expression of SOCS3 and PD-L1: repression of STAT3-mediated gene expression
ALK+ALCL cell lines
  growth inhibition in multiple ALK+ALCL cell lines: mediated growth inhibition
SOCS3; Homo sapiens, 24 hr
  IC50: 0.022 µM
SOCS3; FIG. 5A, FIG. 15
  STAT3-dependent gene expression of SOCS3: downregulates
PD-L1; Homo sapiens, 24 hr
  IC50: 0.029 µM
PD-L1; FIG. 5A, FIG. 15
  STAT3-dependent gene expression of PDL-1: downregulates
STAT3
  STAT3-dependent gene expression of STAT3: downregulates
DEL cells; 96 h, ALCL (ALK+), Day 4, read-out: CTG, IC50 μM, Day 4
  IC50: 0.016 µM
DEL cells; ALCL (ALK+), Day 4
  CTG (% Max inh), Day 4: (95) %
DEL cells; FIG. 16
  cell proliferation: inhibit
SU-DHL-1 cells
  decrease of STAT3 necessary to induce SU-DHL-1 apoptosis and inhibit cell growth: 90%

— patent US12077555B2, “STAT degraders and uses thereof” (Kymera Therapeutics, Inc., priority 2019, dated 2024)
